Entries after “also recorded” stand apart in the source; their conditions may differ.
Test: Pelabresib Form A monohydrate administered to human subjects with myelofibrosis, with or without ruxolitinib (FIG. 1)
Format: in vivo
Conditions: median starting dose 125 mg QD, max 225 mg QD, median duration 47 weeks
Experimental: Pelabresib Form A monohydrate was administered to human subjects (with or without ruxolitinib) with a median starting dose of 125 mg QD and a max dose of 225 mg QD for a median duration of 47 weeks. The results of this study are shown in FIG. 1 (Arm 1 being pelabresib Form A and Arm 2 being pelabresib Form A in combination with ruxolitinib).

In the case of `Cc1noc2c1-c1ccccc1C(c1ccc(Cl)cc1)=N[C@H]2CC(N)=O` [pelabresib, 2-((4S)-6-(4-chlorophenyl)-1-methyl-4H-benzo[c]isoxazolo[4,5-e]azepin-4-yl)acetamide], the hemoglobin is reported as “improving hemoglobin” and the “reticulocyte count (number of reticulocytes)” value is reported as “increases the number of reticulocytes; also recorded: effective in increasing reticulocytes”.
